The source of these data is article PMC7997578, “Design, Synthesis, Dynamic Docking, Biochemical Characterization, and in Vivo Pharmacokinetics Studies of Novel Topoisomerase II Poisons with Promising Antiproliferative Activity” (Journal of Medicinal Chemistry, 2020).

One data set deals with T1, human topoIIα (Homo sapiens, UniProt P11388).
T1 construct: purchased Inspiralis
Description: topoII decatenation assay (Inspiralis). In kind it is biochemical. Particulars: human topoIIα decatenation assay; mean ± SD of two independent experiments; read-out: IC50. As for the experimental part: We measured the inhibitor activity of our new compounds against human topoIIα, using a topoII decatenation assay (Table 1).
The activity of topoIIα was measured using a decatenation assay (Inspiralis) following the manufacturer’s instructions. Compounds were dissolved in DMSO and used at a concentration ranging from 200 to 1 μM. Final DMSO concentration in the assay was ≤1%. Reaction mixtures were incubated for 30 min at 37 °C and terminated with STEB buffer (40% (w/v) sucrose, 100 mM Tris-HCl, pH 8, 1 mM EDTA, 0.5 mg/mL bromophenol blue). Reaction products were resolved by electrophoresis in 1% agarose gels containing SYBR Safe DNA stain (Invitrogen), scanned, and quantified using the ChemiDoc system (BioRad). IC50 values were obtained with GraphPad Prism software (version 5.03) using the band intensities of the dose–response gels. Values are reported as the mean ± SD of two independent experiments.

Data set [1] can be described thus: aqueous kinetic solubility. The class given is physicochemical. The settings on record: PBS, pH 7.4, PBS pH 7.4, target 250 µM, 2.5% DMSO, 25°C. Here is the method: 1. In vitro m etabolic stabili ty
In vitro microsomial stability. 10mM DMSO stock solution of test compound was pre-incubated at 37 °C for 15min with mouse liver microsomes added 0.1M Tris-HCl buffer (pH 7.4). The final concentration was 4.6µM. After pre -incubation, the co-factors (NADPH, G6P, G6PDH and MgCl2 pre-dissolved in 0.1M Tris-HCl) were added to the incubation mixture and the incubation was continued at 37 °C for 1h. At each time point (0, 5, 15, 30, 60min), 30µL of incubation mixture was diluted with 200µL cold CH 3CN spiked with 200n M of internal standard, followed by centrifugation at 3500g for 15min. The supernatant was further diluted with H2O (1:1) for analysis. The concentration of test compound was quantified by LC/MS-MS on a Waters ACQUITY UPLC/M S TQD system consisting of a TQD (Triple Quadrupole Detector) Mass Spectrometer equipped with an Electrospray Ionization interface. The analyses were run on an ACQUITY UPLC BEH C18 (50x2.1mmID, particle size 1.7µm) with a VanGuard BEH C18 pre -column (5x2.1mmID, particle size 1.7µm) at 40°C, using 0.1% HCOOH in H 2O (A) and 0.1% HCOOH in CH 3CN (B) as mobile phase. Electrospray ionization (ESI) was app lied in positive mode . The percentage of test compound remaining at each time point relative to t=0 was calculated. The half -lives (t½) were determined by an one-phase decay equation using a non -linear regression of compound concentration versus time.
In vitro Plasma Stability. 10mM DMSO stock solution of test compound was diluted 50 -fold with DMSO-H2O (1:1) and incubated at 37 °C for 2 h with mouse plasma added 5% DMSO (pre-heated at 37 °C for 10 min). The final concentration was 2µM. At each time point (0, 5, 15, 30, 60, 120min), 50 µL of incubation mixture was diluted with 200µL cold CH3CN spiked with 200nM of internal standard, followed by centrifugation at 3500g for 20min. The supernatant was further diluted with H2O (1:1) for analysis. The concentration of test compound was quantified by LC/MS-MS on a Waters ACQUITY UPLC/MS TQD system consisting of a TQD (Triple Quadrupole Detector) Mass Spectrometer equipped with an Electrospray Ionization interface. The analyses were run on an ACQUITY UPLC BEH C18 (50x2.1mmID, particle size 1.7µm) with a VanGuard BEH C18 pre - column (5x2.1mmID, particle size 1.7µm) at 40°C, using 0.1% HCOOH in H2O (A) and 0.1% HCOOH in CH3CN (B) as mobile phase. Electrospray ionization (ESI) was applied in positive mode.
The response factors, calculated on the basis of the internal standard peak area, were plotted over time. When possible, response vs. time profiles were fitted with Prism (GraphPad Software, Inc., USA) to estimate compounds half-life in plasma.
2. Aqueous ki netic solu bili ty
The aqueous kinetic solubility was determined from a 10mM DMSO stock solution of test compound in Phosphate Buffered Saline (PBS) at pH 7.4. The study was performed by incubation of an aliquot of 10mM DMSO stock solution in PBS (pH 7.4) at a target concentration of 250µM resulting in a final concentration of 2.5% DMSO. The incubation was carried out under shaking at 25°C for 24h followed by centrifugation at 21.100g for 30min. The supernatant was analyzed by UPLC/MS for the quantification of dissolved compound by UV at a specific wavelength (215nm).
The analyses were performed on a Waters ACQUITY UPLC/MS SQD system consisting of a SQD (Single Quadrupole Detector) Mass Spectrometer equipped with Electrospray Ionization interface.
The analyses were run on an ACQUITY UPLC BEH C18 column (50x2.1mmID, particle size 1.7µm) with a VanGuard BEH C18 pre-column (5x2.1mmID, particle size 1.7µm), using 10mM NH4OAc in H2O at pH 5 adjusted with AcOH (A) and 10mM NH4OAc in MeCN-H2O (95:5) at pH 5 (B) as […]

Data set [2] has as its system HeLa cells. Description: cell viability MTT assay, HeLa. Particulars: HeLa cervical cancer cells, mean ± SD of two experiments, read-out: HeLa antiproliferative activity IC50. In kind it is cell-based, human. As for the experimental part: (§1) The antiproliferative activity of all compounds was evaluated in (i) DU145, an androgen-independent prostate cancer cell line; (ii) HeLa, a cervical cancer cell line; and (iii) A549, a lung adenocarcinoma cell line (Table 1). […] Undoubtedly, this preliminary cytotoxicity data will need further characterization, also in relation to the in vitro activity of these compounds.
(§2) Human cancer cell lines A549 (lung adenocarcinoma, ATCC CCL-185), DU-145 (androgen-independent prostate cancer, ATCC HTB-81), and HeLa (cervical carcinoma, ATCC CCL-2) were obtained from ATCC. Cells were routinely grown in minimal essential medium containing Eagle’s salts and L-glutamine supplemented with 10% heat-inactivated FBS in a humidified atmosphere of 5% CO2 at 37 °C. To assess the antiproliferative activity of the compounds, cells were seeded at a density of 2500 cells/well (HeLa) or 5000 cells/well (A549, DU-145) in 96-well plates, and cell viability was measured using the MTT assay as described previously.[39] Values are reported as the mean ± SD of two independent experiments.
For orientation: Formazan colour is commonly taken as a measure of viable cells.

A further data set concerns A549 cells. Description: cell viability MTT assay, A549. The class given is cell-based, human. Particulars: mean ± SD of two experiments, read-out: A549 antiproliferative activity IC50. Here is the method: as §1, §2
For data set [3], the system named is DU145 cells. Description: cell viability MTT assay, DU145. The class given is cell-based, human. Particulars: mean ± SD of two experiments, read-out: DU145 antiproliferative activity IC50. As for the experimental part: as §1, §2
For data set [4], the target named is T2, topoII/DNA cleavage complex (Homo sapiens, UniProt P11388).
T2 construct: purchased Inspiralis
Description: topoisomerase II cleavage complex assay. The class given is biochemical. The settings on record: 200 μM compound, 1 U topoII, plasmid DNA. As for the experimental part:
Figure 2 Poison activity of the hybrid compounds. Agarose gel electrophoresis of plasmid DNA incubated in the absence (no enzyme) or presence of 1 U of topoII containing either 1% DMSO as control vehicle (no enzyme and topoII lanes) or 200 μM compound. Labels are shown above each lane. Numbers at the bottom correspond to the normalized intensity of the linear form (FIII). Plasmid forms are indicated by the arrow-points on the right: supercoiled (FI), nicked (FII), and linear (FIII).
Poison activity of the compounds was evaluated using a cleavage complex assay (Inspiralis) as described previously.[60] Compounds were tested at a fixed concentration of 200 μM in the presence of 1 U of topoisomerase II and 500 ng of […] plasmid at 37 °C for 6 min. Final DMSO concentration in the assay was 1%. Reaction products were subjected to electrophoresis in a 1% agarose gel, stained with SYBR Safe DNA stain, and DNA bands were visualized and quantified as described above.

A further data set relates to human topoII. Set-up: method as in PMID 29077404. The settings on record: earlier values of the same authors; read-out: IC50 topoII blocker; cited from earlier work.
Data set [5] has as its system HeLa cells. On the set-up: method as in PMID 29077404. Particulars: etoposide and merbarone measured in ref 39, read-out: HeLa antiproliferative activity IC50; cited from earlier work.
For data set [6], the system named is DU145 cells. On the set-up: method as in PMID 29077404. Particulars: etoposide and merbarone measured in ref 39, read-out: DU145 antiproliferative activity IC50; cited from earlier work.
Where [7] appears, read: Homo sapiens, A549, A549 lung adenocarcinoma cells.
Setting [8] is: Homo sapiens, DU-145, DU145 prostate cancer cells.

Molecules are shown by their SMILES. Converted amounts (≈) assume the structure as drawn. Like-named read-outs stand apart in the source and are kept apart here. A value given as a limit tells only on which side of the number the result lay.

T1 sequence (P11388 whole entry): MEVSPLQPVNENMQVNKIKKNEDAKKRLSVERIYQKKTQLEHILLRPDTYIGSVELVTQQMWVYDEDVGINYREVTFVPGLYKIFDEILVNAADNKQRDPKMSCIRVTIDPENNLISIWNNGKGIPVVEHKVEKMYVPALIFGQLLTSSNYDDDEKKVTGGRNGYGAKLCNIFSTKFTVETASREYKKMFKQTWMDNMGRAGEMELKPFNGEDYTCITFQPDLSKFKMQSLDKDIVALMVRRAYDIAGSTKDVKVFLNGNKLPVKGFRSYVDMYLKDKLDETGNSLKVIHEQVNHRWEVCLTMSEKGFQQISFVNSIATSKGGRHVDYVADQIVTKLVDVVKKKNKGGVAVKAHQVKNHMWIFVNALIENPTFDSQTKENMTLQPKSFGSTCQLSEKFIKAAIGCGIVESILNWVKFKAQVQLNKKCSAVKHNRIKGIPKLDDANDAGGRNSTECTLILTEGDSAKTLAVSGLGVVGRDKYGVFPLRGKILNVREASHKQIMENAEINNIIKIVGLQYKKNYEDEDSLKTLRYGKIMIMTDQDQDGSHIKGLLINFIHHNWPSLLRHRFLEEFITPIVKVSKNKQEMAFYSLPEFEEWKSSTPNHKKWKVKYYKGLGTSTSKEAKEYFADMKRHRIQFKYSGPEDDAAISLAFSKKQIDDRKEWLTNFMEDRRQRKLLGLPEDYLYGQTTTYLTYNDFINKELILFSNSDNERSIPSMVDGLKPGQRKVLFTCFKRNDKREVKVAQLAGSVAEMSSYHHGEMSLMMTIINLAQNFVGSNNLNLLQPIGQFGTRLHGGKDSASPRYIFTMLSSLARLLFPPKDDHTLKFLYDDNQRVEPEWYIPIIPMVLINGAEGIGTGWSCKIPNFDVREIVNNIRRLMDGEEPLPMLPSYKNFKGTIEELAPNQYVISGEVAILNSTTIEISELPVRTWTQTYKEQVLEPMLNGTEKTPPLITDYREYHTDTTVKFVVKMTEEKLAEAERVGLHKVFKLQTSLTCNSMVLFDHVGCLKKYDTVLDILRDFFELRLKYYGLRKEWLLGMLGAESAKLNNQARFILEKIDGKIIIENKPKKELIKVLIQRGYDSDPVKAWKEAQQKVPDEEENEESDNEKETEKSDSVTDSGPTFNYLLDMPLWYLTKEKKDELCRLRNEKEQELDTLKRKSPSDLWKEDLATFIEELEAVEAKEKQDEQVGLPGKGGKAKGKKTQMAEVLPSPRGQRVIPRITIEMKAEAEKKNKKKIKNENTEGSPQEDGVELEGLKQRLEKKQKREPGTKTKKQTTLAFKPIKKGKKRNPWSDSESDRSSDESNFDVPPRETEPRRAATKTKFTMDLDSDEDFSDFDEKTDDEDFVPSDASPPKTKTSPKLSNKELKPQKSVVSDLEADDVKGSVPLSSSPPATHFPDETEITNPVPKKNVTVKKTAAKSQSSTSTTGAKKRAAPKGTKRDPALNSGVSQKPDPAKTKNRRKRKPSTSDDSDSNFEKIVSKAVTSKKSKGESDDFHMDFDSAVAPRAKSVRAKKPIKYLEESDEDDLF
T2 sequence (P11388 whole entry, one chain of several): as the sequence (P11388 whole entry) above

Consider `CC(C)Oc1cccc(NC(=O)c2c(O)n(-c3ccccc3)c(=S)n(-c3ccccc3)c2=O)c1` [3b, 6-Hydroxy-N-(3-isopropoxyphenyl)-4-oxo-1,3-diphenyl-2-thioxo-1,2,3,4-tetrahydropyrimidine-5-carboxamide], for which the IC50 (in general, the concentration at which inhibition is half-maximal) is 9.7 ± 2.6 µM at human topoIIα; 4.2 ± 0.3 µM in the data set on HeLa cells [2] (Homo sapiens, HeLa); 3 ± 0.3 µM with A549 cells (setting [7]); 5.5 ± 0.1 µM with DU145 cells [3] (setting [8]). In addition, in data set [1], the kinetic solubility (commonly solubility judged after dilution from a stock solution rather than from solid) at 24 h stood at 34 µM (≈ 16.1 µg/mL).
As to `O=C(Nc1cccc(OC(F)F)c1)c1c(O)n(-c2ccccc2)c(=S)n(-c2ccccc2)c1=O` [3g, N-(3-(Difluoromethoxy)phenyl)-6-hydroxy-4-oxo-1,3-diphenyl-2-thioxo-1,2,3,4-tetrahydropyrimidine-5-carboxamide], the “mode of action in cleavage complex formation assay” value in data set [4] is on record as “confirmed to be poisons”. Also, the IC50 on human topoIIα was 10.2 ± 1.9 µM; with HeLa cells [2] (Homo sapiens, HeLa) it was 6.4 ± 0.5 µM; in the data set with A549 cells (setting [7]) it was 4.8 ± 0.4 µM; with DU145 cells [3] (setting [8]), 6.5 ± 0.9 µM. In data set [1], the solubility (kinetic) at 24 h is over 200 µM.
In the case of `CC(F)(F)c1cccc(NC(=O)c2c(O)n(-c3ccccc3)c(=S)n(-c3ccccc3)c2=O)c1` [3h, N-(3-(1,1-Difluoroethyl)phenyl)-6-hydroxy-4-oxo-1,3-diphenyl-2-thioxo-1,2,3,4-tetrahydropyrimidine-5-carboxamide], the concentration for half-maximal inhibition (IC50) on human topoIIα is 9.2 ± 0.2 µM; in the data set on HeLa cells [2], 2.5 ± 0.4 µM; in the data set on HeLa cells [2] (Homo sapiens, HeLa) it was under 5 µM; in the data set on A549 cells (A549 lung adenocarcinoma cells), 3 ± 1.1 µM; in the data set with A549 cells (setting [7]) it was under 5 µM; in the data set on DU145 cells [3] (DU145 prostate cancer cells) it was 2.7 ± 2.5 µM. In addition, the IC50 in the data set with DU145 cells [3] (setting [8]) is under 5 µM. The kinetic solubility at 24 h in [1] was found to be 6 µM (≈ 2.88 µg/mL).
As for `O=C(Nc1cccc(C(F)F)c1)c1c(O)n(-c2ccccc2)c(=S)n(-c2ccccc2)c1=O` [3i, N-(3-(Difluoromethyl)phenyl)-6-hydroxy-4-oxo-1,3-diphenyl-2-thioxo-1,2,3,4-tetrahydropyrimidine-5-carboxamide], in data set [4], the “mode of action in cleavage complex formation assay” value is “confirmed to be poisons”. Moreover, the IC50 on human topoIIα worked out at 11.4 ± 2.4 µM; in the data set on HeLa cells [2] (Homo sapiens, HeLa), 4.9 ± 1.4 µM; in the data set on A549 cells (setting [7]), 4.4 ± 0.2 µM; in the data set on DU145 cells [3] (setting [8]) it was 7.8 ± 0.2 µM. For the same molecule, the solubility (kinetic) at 24 h in data set [1] was over 200 µM.
For the molecule `COc1cccc(CCNC(=O)c2c(O)n(-c3ccccc3)c(=S)n(-c3ccccc3)c2=O)c1` [5e, 6-Hydroxy-N-(3-methoxyphenethyl)-4-oxo-1,3-diphenyl-2-thioxo-1,2,3,4-tetrahydropyrimidine-5-carboxamide], the IC50 at human topoIIα was 15.8 ± 3.4 µM; with HeLa cells [2] it was 3.4 ± 0.1 µM; with HeLa cells [2] (Homo sapiens, HeLa), under 5 µM; with A549 cells (A549 lung adenocarcinoma cells), 3.2 ± 1.2 µM; with A549 cells (setting [7]), under 5 µM; in the data set on DU145 cells [3] (DU145 prostate cancer cells), 3.3 ± 2.5 µM. The IC50 with DU145 cells [3] (setting [8]) was under 5 µM. This molecule came in with a kinetic solubility at 24 h in data set [1] of 122 µM (≈ 57.8 µg/mL).
For `COc1cccc(NC(=O)c2c(O)n(-c3ccccc3)c(=S)n(-c3ccccc3)c2=O)c1` [ARN16267], the IC50 was 16.1 ± 2.4 µM on human topoIIα; 5.5 ± 1.3 µM in the data set on HeLa cells [2] (Homo sapiens, HeLa); 4.7 ± 0.3 µM with A549 cells (setting [7]); 30 ± 6 µM with human topoII; 7.6 ± 0.8 µM in the data set on DU145 cells [3] (setting [8]). The same molecule gave a solubility (kinetic) at 24 h in data set [1] of 236 µM (≈ 105 µg/mL).
For the molecule `COc1cc(/C=C/CNC(=O)c2c(O)n(-c3ccccc3)c(=S)n(-c3ccccc3)c2=O)cc(OC)c1O` [compound 8, (E)-6-Hydroxy-N-(3-(4-hydroxy-3,5-dimethoxyphenyl)allyl)-4-oxo-1,3-diphenyl-2-thioxo-1,2,3,4-tetrahydropyrimidine-5-carboxamide], the IC50 at human topoIIα was 28 ± 4.4 µM; in the data set on HeLa cells [2] (Homo sapiens, HeLa), 9.3 ± 0.2 µM; in the data set on A549 cells (setting [7]) it was 9.5 ± 1.5 µM; with DU145 cells [3] (setting [8]), 9.8 ± 2.1 µM.
As for `O=C1NC(=S)NC(=O)C1C(=O)Nc1ccccc1` [merbarone, 6-hydroxy-4-oxo-N-phenyl-2-thioxo-1H-pyrimidine-5-carboxamide], the IC50 with HeLa cells [5] is 62.3 ± 6.4 µM; on human topoIIα, 26 ± 4.7 µM; in the data set on DU145 cells [6], 18.9 ± 2 µM; in the data set with human topoII, 120 ± 12 µM.
